Read-outs that look alike come from different tables or passages of the source.
Key:
Assay type in all cases: in vivo
Wistar male rats = assay: Flexor reflex in spinalized rats; settings: intravenous; for response vs control in vivo at 0.1 mg/kg / response vs control in vivo at 0.3 mg/kg: Rattus norvegicus; for response vs control in vivo at 0.1 mg/kg / response vs control in vivo at 0.3 mg/kg / Reflex amplitude (%) 10 min. after / Reflex amplitude (%) 60 min. after: pre-dose mean = 100%; for Area below the reflex amplitude linking line: covering 60 minutes
Description: Wistar male rats (weighing 450-520 g) were anesthetized with ether, and the cervical part of […] was exposed, into which a tracheal cannula was inserted. The vagus nerves were severed bilaterally at the cervical region. Thereafter, the cervical vertebra C1 segment was transected, and rapidly, artificial ventilation was given with the use of an artificial respirator (Shinano Factory 60 rpm. 4 ml/stroke). The rat was placed on a thermostated apparatus in which water thermostated at 37° C. was circulated and fixed thereto at forelimbs, right hindlimb, tooth and tail. A venous cannula was inserted into the femoral vein in the right hindlimb and two needle electrodes were subcutaneously inserted into the left skin of the toe, and a piece of thread was attached to the limb with the edge of the thread bonded to a force-displacement transducer. Tension of about 5 g was applied to the thread. Through the electrodes, electric stimuli of 50-100 V were applied once per 30 seconds. The flexor reflex was recorded on the polygraph via a force-displacement transducer. After the reaction became constant in about one-hours' lapse for stabilization, the test compound dissolved in saline was intravenously administered. Thereafter, the reaction was recorded for 1 hour. In the data, taking the mean of the three reactions just before administration of the test compound for 100%, the reflex amplitude at 1-, 3-, 5-, 8-, 10-, 15-, 20-, 30-, 40-, 50- and 60-minutes' lapse after administration of the test compound were calculated. In Table 3, there are shown calculated area below the straight line linking the obtained reflex amplitude at the respective above-mentioned time covering 60 […], and the reflex amplitude at 10- and 60-minutes' lapse after administration (Table 3).

ICR male mice [1] = assay: Anti-reserpine action (antagonistic action against hypothermia); settings: SC, mice given reserpine 5 mg/kg s.c. 3 or 3.5 hours before, from regression line; for ED (1 degC rise in body temperature): Mus musculus, 2 h, read-out: Concentration of test compound necessary for raising body temperature by 1° C. on the average for 120 minutes
Description: ICR male mice weighing 35-40 g were subcutaneously administered with reserpine at the dose of 5 mg/kg. About 2 hours later, each of the mice was held by a mouse-holder, and a body temperature sensor was intrarectally inserted. Thereafter, the body temperature was automatically measured every 10 minutes. The test compound dissolved in saline was subcutaneously administered 3 or 3.5 hours after administration of reserpine. After the administration of the test compound, the body temperature was measured every 10 minutes over the period of 120 minutes. The area below the body temperature line during the period was calculated, from which the regression line was estimated based upon least square method, and estimated was the amount of the test compound necessary for raising the body temperature by 1° C. on the average for 120 minutes from that just before the administration of the test compound (Table 1).

ICR male mice [2] = assay: Anti-chlorpromazine action (locomotor stimulant action); settings: SC, mice given chlorpromazine.HCl 5 mg/kg s.c. one hour before, from regression line; for ED (3000 locomotor counts): Mus musculus, 2 h, read-out: Concentration of test compound necessary for inducing 3000 count of automatism quantity in 2 hours
Description: ICR male mice weighing 35-40 g (four animals per group) were subcutaneously administered with chlorpromazine.HCl at the dose of 5 mg/kg and immediately set in the automatic locomotor-measuring apparatus (AUTOMEX). One hour later, the test compound dissolved in saline was subcutaneously administered, and the locomotor activity was measured every 15 minutes for 120 minutes. The total locomotor activity during the period of 120 minutes was calculated and the regression line was estimated based on the method of least squares, from which the amount of the test compound necessary for inducing 3000 locomotor-count was estimated (Table 2).

[3] = 1 h, 0.1 mg/kg, read-out: Reflex amplitude (%) 60 min. after
[4] = 1 h, 0.3 mg/kg (footnote *), read-out: Reflex amplitude (%) 60 min. after
[5] = 10 min, 0.1 mg/kg, read-out: Reflex amplitude (%) 10 min. after
[6] = 10 min, 0.3 mg/kg (footnote *), read-out: Reflex amplitude (%) 10 min. after

`C[C@H]1CC(=O)C[C@H]1C(=O)N[C@@H](Cc1c[nH]cn1)C(=O)N1CCC[C@H]1C(N)=O` (mixture of isomers) [Compound 19, N^α -(cis-2-Methyl-4-oxocyclopentanecarbonyl)-L-histidyl-L-prolinamide] gave a response vs control in vivo at 0.1 mg/kg (Wistar male rats; [3]) of 246% and a response vs control in vivo at 0.3 mg/kg (Wistar male rats; [4]) of 340%.

With `C[C@@H]1CC(=O)C[C@H]1C(=O)N[C@@H](Cc1c[nH]cn1)C(=O)N1CCC[C@H]1C(N)=O` (mixture of isomers) [Compound 20, N^α -(trans-2-Methyl-4-oxocyclopentanecarbonyl)-L-histidyl-L-prolinamide] the response vs control in vivo at 0.1 mg/kg (Wistar male rats; [3]) was 107% and the response vs control in vivo at 0.3 mg/kg (Wistar male rats; [4]) was 223%.

`C[C@@H]1CC(=O)N[C@@H]1C(=O)N[C@@H](Cc1cnc[nH]1)C(=O)N1CSC[C@H]1C(N)=O` (relative stereo) [Compound 3, 3-[N^α -(cis-3-Methylpyroglutamyl)-L-histidyl]-L-thiazolidine-4-carboxamide] was tested, and the “Concentration of test compound necessary for raising body temperature by 1° C. on the average for 120 minutes” value (from here on “Concentration … for 120 minutes”) (ICR male mice [1]) was 0.20 mg/kg, the “Concentration of test compound necessary for inducing 3000 count of automatism quantity in 2 hours” value (“Concentration … in 2 hours” below) (ICR male mice [2]) was 0.47 mg/kg and the “Area below the reflex amplitude linking line” value (Wistar male rats; 0.1 mg/kg) was 13811. For the same compound, the “Reflex amplitude (%) 10 min. after” value (Wistar male rats; 0.1 mg/kg) was 190.5% and the “Reflex amplitude (%) 60 min. after” value (Wistar male rats; 0.1 mg/kg) was 277.6%.

For `C[C@H]1CC(=O)N[C@@H]1C(=O)N[C@@H](Cc1c[nH]cn1)C(=O)N1CSC[C@H]1C(N)=O` (relative stereo) [Compound 4, 3-[N^α -(trans-3-Methylpyroglutamyl)-L-histidyl]-L-thiazolidine-4-carboxamide], the “Concentration … for 120 minutes” value (ICR male mice [1]) was 0.34 mg/kg, the “Concentration … in 2 hours” value (ICR male mice [2]) was 0.63 mg/kg and the “Area below the reflex amplitude linking line” value (Wistar male rats; 0.1 mg/kg) was 9404. The “Reflex amplitude (%) 10 min. after” value (Wistar male rats; 0.1 mg/kg) was 142.8% and the “Reflex amplitude (%) 60 min. after” value (Wistar male rats; 0.1 mg/kg) was 163.9%.

For `C[C@@H]1CC(=O)N[C@@H]1C(=O)N[C@@H](Cc1c[nH]cn1)C(=O)N1CCC[C@H]1C(N)=O` [Compound 1, N^α -(cis-3-Methylpyroglutamyl)-L-histidyl-L-prolinamide], the response vs control in vivo at 0.1 mg/kg (Wistar male rats; [3]) was 298%.

In the case of `C[C@H]1CC(=O)N[C@@H]1C(=O)N[C@@H](Cc1c[nH]cn1)C(=O)N1CCC[C@H]1C(N)=O` [Compound 2, N^α -(trans-3-Methylpyroglutamyl)-L-histidyl-L-prolinamide], the response vs control in vivo at 0.1 mg/kg (Wistar male rats; [3]) was 107%.

Work on `C[C@@H]1CC(=O)O[C@@H]1C(=O)N[C@@H](Cc1c[nH]cn1)C(=O)N1CCC[C@H]1C(N)=O` [Compound 5, N^α -[(2S,3R)-Tetrahydro-3-methyl-5-oxo-2-furancarbonyl]-L-histidyl-L-prolinamide] yielded a response vs control in vivo at 0.1 mg/kg (Wistar male rats; [3]) of 168%.

In the case of `NC(=O)[C@@H]1CCCN1C(=O)[C@H](Cc1c[nH]cn1)NC(=O)[C@H]1NC(=O)C[C@H]1c1ccccc1` [Compound 11, N^α -(cis-3-Phenylpyroglutamyl)-L-histidyl-L-prolinamide], the ED (1 degC rise in body temperature) (ICR male mice [1]) was 0.28 mg/kg, the ED (3000 locomotor counts) (ICR male mice [2]) was 1.89 mg/kg and the response vs control in vivo at 0.1 mg/kg (Wistar male rats; [5]) was 140%. For the same compound, the response vs control in vivo at 0.1 mg/kg (Wistar male rats; [3]) was 241% and the “Area below the reflex amplitude linking line” value (Wistar male rats; 0.1 mg/kg) was 11321.

`NC(=O)[C@@H]1CCCN1C(=O)[C@H](Cc1c[nH]cn1)NC(=O)C1CCC(=O)C1` (stereo partly drawn) [Compound 13, N^α -(3-Oxocyclopentanecarbonyl)-L-histidyl-L-prolinamide] was tested, and the response vs control in vivo at 0.1 mg/kg (Wistar male rats; [3]) was 167%.

In the case of `NC(=O)[C@@H]1CCCN1C(=O)[C@H](Cc1c[nH]cn1)NC(=O)[C@@H]1CCC(=O)C1` [Compound 16, N^α -[(1R)-3-Oxocyclopentanecarbonyl]-L-histidyl-L-prolinamide], the response vs control in vivo at 0.1 mg/kg (Wistar male rats; [3]) was 252%.

For `CC1(C)CC(=O)CC1C(=O)N[C@@H](Cc1c[nH]cn1)C(=O)N1CCC[C@H]1C(N)=O` (stereo partly drawn) [Compound 21, N^α -(2,2-Dimethyl-4-oxocyclopentanecarbonyl)-L-histidyl-L-prolinamide], the response vs control in vivo at 0.1 mg/kg (Wistar male rats; [3]) was 145% and the response vs control in vivo at 0.3 mg/kg (Wistar male rats; [4]) was 274%.

For `CC(C)C[C@H](NC(=O)[C@H]1NC(=O)C[C@H]1C)C(=O)N1CCC[C@H]1C(N)=O` [Compound 27A, N-(cis-3-Methylpyroglutamyl)-L-leucyl-L-prolinamide], the response vs control in vivo at 0.1 mg/kg (Wistar male rats; [5]) was 126%, the response vs control in vivo at 0.1 mg/kg (Wistar male rats; [3]) was 156% and the “Area below the reflex amplitude linking line” value (Wistar male rats; 0.1 mg/kg) was 8769.

In the case of `CSCC[C@H](NC(=O)[C@H]1NC(=O)C[C@H]1C)C(=O)N1CCC[C@H]1C(N)=O` [Compound 28A, N-(cis-3-Methylpyroglutamyl)-L-methionyl-L-prolinamide], the response vs control in vivo at 0.1 mg/kg (Wistar male rats; [5]) was 125%, the response vs control in vivo at 0.1 mg/kg (Wistar male rats; [3]) was 195% and the “Area below the reflex amplitude linking line” value (Wistar male rats; 0.1 mg/kg) was 9188.

With `CCC[C@H](NC(=O)[C@H]1NC(=O)C[C@H]1C)C(=O)N1CCC[C@H]1C(N)=O` [Compound 29A, N-(cis-3-Methylpyroglutamyl)-L-norvalyl-L-prolinamide] the response vs control in vivo at 0.3 mg/kg (Wistar male rats; [6]) was 124%, the response vs control in vivo at 0.3 mg/kg (Wistar male rats; [4]) was 121% and the “Area below the reflex amplitude linking line” value (Wistar male rats; 0.3 mg/kg (footnote *)) was 7063.

With `CCCC[C@H](NC(=O)[C@H]1NC(=O)C[C@H]1C)C(=O)N1CCC[C@H]1C(N)=O` [Compound 31A, N-(cis-3-Methylpyroglutamyl)-L-norleucyl-L-prolinamide] the response vs control in vivo at 0.1 mg/kg (Wistar male rats; [5]) was 130%, the response vs control in vivo at 0.1 mg/kg (Wistar male rats; [3]) was 129% and the “Area below the reflex amplitude linking line” value (Wistar male rats; 0.1 mg/kg) was 8126.

In the case of `CCC[C@H](NC(=O)[C@H]1NC(=O)CC1(C)C)C(=O)N1CCC[C@H]1C(N)=O` [Compound 33A, N-(3,3-Dimethylpyroglutamyl)-L-norvalyl-L-prolinamide], the response vs control in vivo at 0.3 mg/kg (Wistar male rats; [6]) was 119%, the response vs control in vivo at 0.3 mg/kg (Wistar male rats; [4]) was 120% and the “Area below the reflex amplitude linking line” value (Wistar male rats; 0.3 mg/kg (footnote *)) was 7172.

In the case of `NC(=O)[C@@H]1CCCN1C(=O)[C@H](Cc1ccccc1)NC(=O)[C@@H]1CCC(=O)C1` [Compound 37, N-[(1R)-3-oxocyclopentanecarbonyl]-L-phenylalanyl-L-prolinamide], the “Area below the reflex amplitude linking line” value (Wistar male rats; 0.3 mg/kg (footnote *)) was 5868.

For `NC(=O)C1CCCN1C(=O)C(Cc1cnc[nH]1)NC(=O)C1CCC(=O)O1` (stereo not shown) [DN1417, reference compound], the “Concentration … for 120 minutes” value (ICR male mice [1]) was 2.06 mg/kg, the “Concentration … in 2 hours” value (ICR male mice [2]) was 4.34 mg/kg and the “Area below the reflex amplitude linking line” value (Wistar male rats; 0.3 mg/kg (footnote *)) was 8152. The “Reflex amplitude (%) 10 min. after” value (Wistar male rats; 0.3 mg/kg (footnote *)) was 113.7% and the “Reflex amplitude (%) 60 min. after” value (Wistar male rats; 0.3 mg/kg (footnote *)) was 162.8%.

`NC(=O)[C@@H]1CCCN1C(=O)[C@H](Cc1c[nH]cn1)NC(=O)[C@@H]1CCC(=O)N1` [TRH, L-pyroglutamyl-L-histidyl-L-prolinamide, reference compound] was tested, and the ED (1 degC rise in body temperature) (ICR male mice [1]) was 2.52 mg/kg, the ED (3000 locomotor counts) (ICR male mice [2]) was 6.82 mg/kg and the response vs control in vivo at 0.1 mg/kg (Wistar male rats; [5]) was 118%. For the same compound, the response vs control in vivo at 0.1 mg/kg (Wistar male rats; [3]) was 79.3% and the “Area below the reflex amplitude linking line” value (Wistar male rats; 0.1 mg/kg) was 6418.
